We go through one compound from patent US6548540B2, “Method of treating cancer using dithiocarbamate derivatives” (Charlotte-Mecklenburg Hospital Authority, priority 1998, dated 2003).

Assay [1] has as its system Squamous lung carcinoma NCI-H520. The experiment in a line: MTT proliferation assay, squamous lung carcinoma. Conditions: Homo sapiens, treatment initially, after 48 hours, 10% FBS, read-out: Mean Percent Inhibition of Growth. The format is cell-based. Here is the method:
Human malignant cell lines were obtained from American Type Tissue Culture Collection (Rockville, Md.). Melanoma cells lines CRL 1585 and 1619 were cultured in RPMI 1640 (GIBCO-BRL, Life Technologies, Grand Island, N.Y.) with 10% FBS and passed with nonenzymatic Cell Dissociation Solution® (Sigma). The prostate adenocarcinoma cell line CRL 1435 (PC-3) was also cultured in RPMI 1640 with 10% FBS but passed with 0.05% trypsin and 0.53 mM EDTA. The squamous lung carcinoma NCI-H520 and the adenosquamous lung carcinoma NCI-H596 cell lines were grown in RPMI 1640 supplemented with 10% FBS, 10 mM HEPES and 1.0 mM sodium pyruvate and passed with trypsin/EDTA. The small cell lung carcinoma NCI-H82 was cultured as a suspension in RPMI 1640 with 10% FBS. All of the above were grown in a 37° C. humidified environment containing 5% CO2/air. The breast carcinoma cell line MDA-MB-453 was grown in a 37° C. humidified environment with free gas exchange with atmospheric air using Leibovitz's L-15 medium with 2 mM L-glutamine and 10% FBS and was passed with trypsin/EDTA.
The effect of disulfiram (0.15 to 5.0 μM), diethyldithiocarbamate (DDC, 1.0 μM) or PDTC (0.625 to 5.0 μM) on proliferation of malignant cell lines was studied in cultures stimulated with 10% FBS. Cell numbers were quantitated 24-72 hours later. In some experiments disulfiram or PDTC were added immediately after cells were plated. In other experiments, cells were plated and allowed to grow for 24-72 hours before fresh media with disulfiram or PDTC was added, and cell numbers were assayed 24-72 hours later. […]
Proliferation of cultured cells was quantitated using a previously reported calorimetric method based upon metabolic reduction of the soluble yellow tetrazolium dye 3-[4,5-dimethylthiazol]-2yl-2,5-diphenyl tetrazolium bromide (MTT) to its insoluble purple formazan by the action of mitochondrial succinyl dehydrogenase (See, e.g., S. J. Hirst, et al., “Quantifying proliferation of cultured human and rabbit airway smooth muscle in response to serum and platelet derived growth factor,” Am. J. Respir. Cell Mol. Biol. 7:574-581 (1992); R. Dashtaki, et al. R., supra; S. S. Brar, et al., “Requirement for reactive oxygen species in serum-induced and platelet-derived growth factor-induced growth of airway smooth muscle,” J. Biol. Chem. 274:20017-20026 (1999)). […] MTT-containing medium was removed, 0.5 ml dimethylsulfoxide (DMSO) was added to each well, and the absorbance of the solubilized purple formazan dye was measured at 540 nm. […]
In general terms: Tetrazolium assays rely on reduction of a dye to a coloured formazan, in cell work by metabolically active cells.

A further assay relates to M1619 melanoma cells. The experiment in a line: Apoptosis by TdT 3'-OH fluorescein end-labeling of DNA fragments. The format is cell-based, human. Conditions: 5 μM disulfiram; 15 hours. Here is the method:
To determine whether disulfiram induced apoptosis, cells grown to confluence on 35 mm Petri dishes or on glass slides were treated with disulfiram or DMSO as vehicle. Apoptosis was studied by terminal deoxynucleotidyl transferase (TdT) dependent 3′-OH fluorescein end-labeling of DNA fragments, using a Fluorescein-FragEL™ DNA fragmentation detection kit (Oncogene Research Products, Cambridge, Mass.). Apoptosis was also studied by visually assessing endonuclease dependent DNA fragmentation on ethidium bromide-stained agarose gels.
In FIG. 5A, M1619 melanoma cells treated with DMSO vehicle. In FIG. 5B, M1619 melanoma cells treated with 5 μM disulfiram. […] Cells were grown to confluence on 35 mm Petri dishes or on glass slides and treated for 15 hours with disulfiram or DMSO as vehicle. Apoptosis was studied by terminal deoxynucleotidyl transferase (TdT) dependent 3′-OH fluorescein end-labeling of DNA fragments, using a Fluorescein-FragEL™ DNA fragmentation detection kit (Oncogene Research Products, Cambridge, Mass.).

In another assay the test system is AP-1. The experiment in a line: EMSA of treated cells, AP-1 DNA binding. The format is cell-based, human. Conditions: disulfiram plus copper; 24 hours; data not shown. Here is the method: Nuclear protein was isolated and DNA binding reactions were performed as previously described in detail (See, […], et al., “Dehydroepiandrosterone and analogs inhibit DNA binding of AP-1 and airway smooth muscle proliferation,” J. Pharmacol. Exper. Ther. 285:[…] (1998); T. Kennedy, et al., “Copper-dependent inflammation and nuclear factor-κB activation by particulate air pollution,” Am. J. Respir. Cell Mol. Biol. 19:366-378 (1998)). Monolayers were washed twice in cold DPBS and equilibrated 10 minutes on ice with 0.7 ml cold cytoplasmic extraction buffer, CEB (10 mM Tris, pH 7.9, 60 mM KCl, 1 mM EDTA, 1 mM DTT) with protease inhibitors, PI (1 mM Pefabloc, 50 μg/ml antipain, 1 μg/ml leupeptin, 1 μg/ml pepstatin, 40 μg/ml bestatin, 3 μg/ml E-64 and 100 μg/ml chymostatin). The detergent Nonidet P-40 (NP-40) was added to a final concentration of 0.1% and cells were dislodged with a cell scraper. Nuclei were pelleted by centrifugation and washed with CEB/PI. […]
A general note: A gel shift assay detects complexes by their altered migration in electrophoresis.

On to `CCN(CC)C(=S)SSC(=S)N(CC)CC` [Disulfiram, tetraethylthiuram disulfide], for which, in assay [1] (disulfiram 0.625 μM), the inhibition at 0.625 µM stood at 76 ± 3%. Also, the inhibition at 1.25 µM in assay [1] (disulfiram 1.25 μM) was determined as 82 ± 4%. The inhibition at 2.5 µM in assay [1] (disulfiram 2.5 μM) was determined as 77 ± 4%. In addition, the inhibition at 5 µM in assay [1] (disulfiram 5.0 μM) was 78 ± 3%. The “3'-OH fluorescein end-labeling of DNA fragments (apoptosis)” value in the assay on M1619 melanoma cells is reported as “markedly increases”. For the same compound, in the assay on AP-1, the “DNA binding of AP-1” value is on record as “inhibited”.

For orientation: inhibition means how much of the control response was suppressed.
